Results taken from paper PMC6806261, “Modified Peptide YY Molecule Attenuates the Activity of NPY/AgRP Neurons and Reduces Food Intake in Male Mice” (Endocrinology, 2019).
Where no end group is shown, it is not given here.

Assays:
mice [1] = assay: Normal nighttime feeding after SC injection; assay type: in vivo, mouse; conditions: serial dilution, food intake after 2 hours
Procedure: (§1) For acute experiments, mice were acclimated to handling for 2 weeks and housed singly with free access to food at least 4 days before experiments. Nighttime injections of NNC0165-1273 were given subcutaneously (SC) 30 minutes before start of “dark phase,” and food intake was measured 1, 2, 4, and 14 hours later. Daytime feeding experiments commenced 4 hours into the “light phase” [Zeitgeber time (ZT) 4]; injections of ghrelin (2 mg/kg, IP) and NNC0165-1273/PYY3-36 (various doses, SC) were given concomitantly, and food intake measured at 1, 2, 4, and 24 hours later.

NPY/AgRP neurons = assay: cFos immunohistochemistry in arcuate NPY/AgRP neurons; assay type: in vivo, mouse
Procedure: Mice were transcardially perfused with chilled 0.9% NaCl followed by 4% paraformaldehyde in 0.1M phosphate buffer (Sigma-Aldrich). Whole brains were postfixed overnight and then dehydrated in 30% sucrose solution. Brains were flash frozen on dry ice, and then 30 µm sections were collected using a freezing sledge microtome and transferred to 0.1M phosphate buffer.
For chromogenic visualization of cFos, free-floating sections were incubated sequentially in rabbit anit-cFos primary [1:1000; SC-52; Santa Cruz, Dallas, TX ([37])], biotinylated goat anit-rabbit secondary [1:500; BA-1000; Vector Laboratories, Cambridge, UK ([38])], and streptavidin-biotin-peroxidase complex (1:500; RPN1051; GE Healthcare, Chicago, IL). This was combined with fluorescence staining for GFP or mCherry reporters; this required coincubation of sections with chicken anit-GFP [1:1000; 13970; Abcam, Cambridge, UK ([39])] followed by donkey anit-chicken^ALEXA 488 [1:1000; 703-545-155, Jackson ImmunoResearch, West Grove, PA ([40])], or with rabbit anti-DsRed [1:1000, 632396, Clontech, CA ([41])] followed by donkey […]^ALEXA 594 [1:1000; 705-585-147; Jackson ImmunoResearch, ([42])]. Sections were mounted on slides before imaging on an Olympus BX51 upright microscope. Images were processed and analyzed using open-source FIJI software.

[2] = cited from earlier work
Source text: (§2) PYY3-36 and ghrelin were purchased from Bachem (Bubendorf, Switzerland). NNC0165-1273 was identified from a series of modified PYY peptides and synthesized with the aim of increased selectivity for Y2 receptors vs the other Y receptors [peptide no. 29 in Østergaard et al. ([9])].

human Y1 receptor = conditions: ref [9] Østergaard et al., read-out: binding inhibitory constant (Ki), Y1 receptor; cited from earlier work
Source text: as §2

human Y2 receptor = conditions: same binding assays for both peptides, ref [9] Østergaard et al., read-out: binding inhibitory constant (Ki), Y2 receptor; cited from earlier work
Source text: as §2

human Y4 receptor = conditions: ref [9] Østergaard et al., read-out: binding inhibitory constant (Ki), Y4 receptor; cited from earlier work
Source text: as §2

human Y5 receptor = conditions: ref [9] Østergaard et al., read-out: binding inhibitory constant (Ki), Y5 receptor; cited from earlier work
Source text: as §2

[3] = tested on: Agrp-cre::hM3Dq-mCherry mice; assay: DREADD (hM3Dq/CNO)-stimulated feeding; assay type: in vivo, mouse
Procedure: For surgery, mice (8 to 12 weeks) were anesthetized with isoflurane (1 L/min O2 with 2% isoflurane). Following surgery, all mice received 0.03 mg/kg buprenorphine (Buprenex, Reckitt Benckiser, Slough, UK) and were allowed a minimum of 1 week to recover before treatment started. DIO mice received subcutaneous implants of an Alzet 2002 osmotic minipump (Durect, Cupertino, CA). All of the DIO mice experienced a small reduction in body weight following implantation of the minipump. For experiments using designer receptors exclusively activated by designer drugs (DREADDs), AgRP-cre mice received bilateral injections of AAV2-hSyn-DIO-hM3Dq-mCherry (UNC Vector Core, Chapel Hill, NC) ([35]) into the arcuate nucleus (3 × 23 nL per side), using the following coordinates relative to Bregma, according to Paxinos and Franklin ([36]): anterior, −1.5 mm; lateral, ±0.30 mm; and ventral, −6.2 mm. Subsequently, the DREADDs were activated by IP injection of the designer drug, clozapine N-oxide (CNO; Sigma-Aldrich, St. Louis, MO) at 1 mg/kg.

mice [4] = assay: Ghrelin-induced daytime feeding; assay type: in vivo, mouse; conditions: 2 mg/kg IP, light phase, fed mice
Procedure: as §1

[5] = tested on: arcuate NPY/AgRP neurons (Npy-hrGFP); assay: Current clamp patch electrophysiology in brain slices; assay type: cell-based, mouse; conditions: 50 nM bath application; results not shown
Procedure: Npy-hrGFP mice were euthanized by decapitation, and the brains rapidly removed and sliced on a vibratome (Campden Instruments, Loughborough, UK) in ice-cold oxygenated incubation artificial cerebrospinal fluid (aCSF) containing (mM): 95 NaCl, 1.8 KCl, 1.2 KH2PO4, 7 MgSO4, 26 NaHCO3, 0.5 CaCl2, 15 glucose, and 50 sucrose. Slices were perfused with room temperature recording aCSF containing (mM): 127 NaCl, 1.8 KCl, 1.2 KH2PO4, 1.3 MgSO4, 26 NaHCO3, 2.4 CaCl2, and 5 glucose. Npy-hrGFP neurons were visualized in 250-µm slices using an Olympus BX51 with inbuilt infrared video-enhanced differential interference contrast optics and GFP fluorescence optics. Neurons were patched using 7 to 10 MΩ pipettes containing (mM): 130 K-gluconate, 10 KCl, 2 MgCl2, 10 HEPES, 0.5 EGTA, 2 K2ATP, and 0.5 NaGTP. Data were recorded on an Axoclamp 2A amplifier in bridge mode (Molecular Devices, San Jose, CA) and a CED 1401 A/D data acquisition interface (CED, Cambridge, UK) to give current clamp data at 30 kHz sampling frequency. NNC0165-1273 (Novo Nordisk, Maaloev, Denmark) was diluted in aCSF to a concentration of 50 nM and applied to perfusion chamber through a gravity-driven system. Effects were sampled with no current manipulations. All applications were timed for 3 to 5 minutes and perfusion flow was maintained at standard 1 to 2 mL/min^−1.

Molecule: PYY3-36: truncated major circulating form of gut hormone peptide YY; purchased from Bachem
- threshold dose needed to inhibit nighttime feeding (mice [1]): 0.04 µmol/kg
- ghrelin-induced activation (cFos) of NPY/Agrp neurons (NPY/AgRP neurons; pretreatment before ghrelin 2 mg/kg, perfused 90 minutes after ghrelin, Npy-hrGFP mice): blocked
- half-life in pig plasma [2]: 3.33 h
- Ki (human Y1 receptor): 40 nM
- Ki (human Y2 receptor): 0.4 nM
- Ki (human Y4 receptor): 13 nM
- Ki (human Y5 receptor): 3.2 nM

Molecule: C[N+]1([O-])CCN(C2=Nc3cc(Cl)ccc3Nc3ccccc32)CC1 [CNO, clozapine N-oxide]
- food intake in Agrp-cre::hM3Dq-mCherry mice ([3]; single IP injection 1 mg/kg, vs saline): substantial increase in food intake
- food intake in wild-type mice ([3]; wild-type mice, results not shown): do not respond

Molecule: ghrelin: orexigenic peptide purchased from Bachem, used to induce feeding and activate NPY/AgRP neurons (GSSFLSPEHQRVQQRKESKKPPAKLQPR; ends and bridges not checked; UniProt Q9UBU3 24-51, looked up)
- food intake after ghrelin alone (mice [4]): substantial increase in food intake
- cFos expression in the arcuate nucleus, notably NPY-hrGFP neurons (NPY/AgRP neurons; ghrelin 2 mg/kg, 90 minutes after injection): substantial increase
- resting membrane potential of NPY/AgRP neurons [5]: increase in the resting membrane potential
